Source: patent publication US9540397B2, “BACE1 inhibitors” (Hoffmann-La Roche Inc., priority 2014, dated 2017)

Experiments:
[1] = test system: Aβ40 in brain of wild-type mice; experiment: Lowering of Aβ40 in brain of wild-type mice; assay type: in vivo; conditions: Mus musculus, po; female C57Bl/6J mice, 30 mg/kg per os, 4 h; brain Aβ40 related to the value in the vehicle group; read-out: Aβ40 (wt mice, brain)
Procedure: Lowering of Aβ40 in Brain of Wild-Type Mice:
Animals and Housing Conditions.
Animals were maintained in a 12/12 h light/dark cycle, with lights starting at 6 a.m., and experiments were conducted during the light phase. Animal housing and experimental procedures were in line with ethical and legal guidelines and were authorized by local veterinary authorities.
Experiment. Female C57Bl/6J mice were treated with a dose of 30 mg/kg of the compounds, 3-4 animals per treatment group. The test compound was dissolved in 5% EtOH, 10% Solutol, and was applied per os at 10 mL/kg. After 4 h, the animals were sacrificed and brain and plasma were collected. The brain was cut into halves and immediately frozen on dry ice. Brain was used for measurement of Aβ40 and plasma was used for determination of compound exposure. […] Brain tissue was homogenized in 2% DEA buffer in a Roche MagnaLyser (20″, 4000 rpm) and subsequently centrifuged for 1 h at 100000 g. DEA was reduced to 0.2% in 50 mM NaCl and one-half of the DEA lysate was passed over an Oasis Solid phase extraction plate (Waters; cat. no. 186000679), which had been activated with MeOH and equilibrated in dH2O (1 mL each). After washes in 10% and 30% MeOH (1 mL each), the Aβ-peptides were eluted in 0.8 mL of 2% NH4OH in 90% MeOH. The eluate was dried over a N2 flow, and the dried sample was reconstituted in 30 μL of AlphaLISA assay buffer. Aβ40 was determined by an AlphaLISA assay (Perkin-Elmer). In a white 96-well, half area microplate (Perkin-Elmer cat. no. 6005561), 20 μL of the reconstituted sample were mixed with 5 μL of biotinylated BAP-24 (specific for C-terminus of Aβ40) (Brockhaus, M.; Grunberg, J.; Rohrig, S.; Loetscher, H.; Wittenburg, N.; Baumeister, R.; Jacobsen, H.; Haass, C. Caspasemediated cleavage is not required for the activity of presenilins in amyloidogenesis and NOTCH signaling. NeuroReport 1998, 9, 1481-1486.) stock=4.4 mg/mL, f.c.5.5 μg/mL), and 5 μL 252Q6 acceptor beads (252Q6 antibody, Invitrogen AMB0062) had been previously conjugated with AlphaLISA Acceptor beads (Perkin-Elmer cat. no. 6772002); final dilution 1:500). The mix was incubated for 1 h at RT in the dark. Then 20 μL of Streptavin-coated Donor Beads (Perkin-Elmer cat. no. 6760002, final dilution 1:125) were added and this final mix was incubated in the dark for another 30 min at RT before RFU was measured in an AlphaScreen Reader (Perkin-Elmer Envision 2104). The value obtained for Aβ40 in the treated animals was related to the value in the vehicle group and is given in %. Alternatively a commercial ELISA was used for Aβ40 determination (Wako ELISA: (“Human/Rat β Amyloid (40) ELISA kit Wako II”; cat nr. 294-64701) following the manufacture's instruction. Also here the Aβ-lowering efficacy was calculated as percentage of the vehicle group.

BACE1 = target: T1, BACE1 (Homo sapiens, UniProt P56817); experiment: Cellular Aβ-lowering assay (Abeta 40 AlphaLISA, HEK293 APP cells); assay type: cell-based; conditions: 18-20 hrs incubation, Aβ40 in culture supernatant, read-out: BACE1 cell act. Aβ40 IC50
T1 construct: endogenous in cells; host or cells: HEK293 APP cells
Summary of the method: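 APP-expressing HEK293 cells exposed to compounds for 18-20 h at 37° C. (1% DMSO final). Secreted Aβ1-40 in supernatant measured by AlphaLISA (615 nm emission), expressed as percent of DMSO-only signal, and IC50 fitted.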

T1 sequence (P56817 46-501): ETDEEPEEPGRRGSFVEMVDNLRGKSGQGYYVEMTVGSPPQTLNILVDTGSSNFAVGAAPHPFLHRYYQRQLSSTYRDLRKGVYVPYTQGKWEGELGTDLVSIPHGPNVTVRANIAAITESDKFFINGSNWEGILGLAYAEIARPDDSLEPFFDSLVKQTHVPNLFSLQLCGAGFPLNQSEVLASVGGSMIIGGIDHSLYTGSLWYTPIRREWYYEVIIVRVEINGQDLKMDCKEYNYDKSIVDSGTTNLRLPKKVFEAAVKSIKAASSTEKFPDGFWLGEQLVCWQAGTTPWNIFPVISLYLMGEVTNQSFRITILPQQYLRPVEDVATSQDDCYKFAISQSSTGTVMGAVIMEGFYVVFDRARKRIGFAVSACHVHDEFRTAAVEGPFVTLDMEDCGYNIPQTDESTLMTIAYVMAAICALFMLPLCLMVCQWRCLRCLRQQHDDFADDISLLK

CC1(C)C(N)=N[C@](C)(c2nc(NC(=O)c3ccc(OC(F)F)cn3)ccc2F)[C@H]2CC(F)(F)CN=[S@@]21=O [Example 35AA, N-(6-((4aR,5R,9R)-7-amino-3,3-difluoro-5,8,8-trimethyl-9-oxido-2,3,4,4a,5,8-hexahydro-[1,4]thiazino[2,1-f][1,2]thiazin-5-yl)-5-fluoropyridin-2-yl)-5-(difluoromethoxy)picolinamide]
response vs control in vivo at 30 mg/kg [1]: 101%
IC50 (BACE1): 87.4 nM

CC1(C)C(N)=N[C@](C)(c2nc(NC(=O)c3ccc(OCC(F)(F)C(F)F)cn3)ccc2F)[C@H]2CC(F)(F)CN=[S@@]21=O [Example 36AA, N-(6-((4aR,5R,9R)-7-amino-3,3-difluoro-5,8,8-trimethyl-9-oxido-2,3,4,4a,5,8-hexahydro-[1,4]thiazino[2,1-f][1,2]thiazin-5-yl)-5-fluoropyridin-2-yl)-5-(2,2,3,3-tetrafluoropropoxy)-picolinamide]
response vs control in vivo at 30 mg/kg [1]: 84%
IC50 (BACE1): 416 nM

CC1(C)C(N)=N[C@](C)(c2nc(NC(=O)c3ncc(C#N)cc3Cl)ccc2F)[C@H]2CC(F)(F)CN=[S@@]21=O [Example 37AA, N-(6-((4aR,5R,9R)-7-amino-3,3-difluoro-5,8,8-trimethyl-9-oxido-2,3,4,4a,5,8-hexahydro-[1,4]thiazino[2,1-f][1,2]thiazin-5-yl)-5-fluoropyridin-2-yl)-3-chloro-5-cyanopicolinamide]
response vs control in vivo at 30 mg/kg [1]: 73%
IC50 (BACE1): 1.6 nM

CC1(C)C(N)=N[C@](C)(c2nc(NC(=O)c3ncc(Cl)cc3Cl)ccc2F)[C@H]2CC(F)(F)CN=[S@@]21=O [Example 40AA, N-(6-((4aR,5R,9R)-7-amino-3,3-difluoro-5,8,8-trimethyl-9-oxido-2,3,4,4a,5,8-hexahydro-[1,4]thiazino[2,1-f][1,2]thiazin-5-yl)-5-fluoropyridin-2-yl)-3,5-dichloropicolinamide]
response vs control in vivo at 30 mg/kg [1]: 77%
IC50 (BACE1): 4.9 nM

CC1(C)C(N)=N[C@](C)(c2nc(NC(=O)c3ncc(F)cc3Cl)ccc2F)[C@H]2CC(F)(F)CN=[S@@]21=O [Example 41AA, N-(6-((4aR,5R,9R)-7-amino-3,3-difluoro-5,8,8-trimethyl-9-oxido-2,3,4,4a,5,8-hexahydro-[1,4]thiazino[2,1-f][1,2]thiazin-5-yl)-5-fluoropyridin-2-yl)-3-chloro-5-fluoropicolinamide]
response vs control in vivo at 30 mg/kg [1]: 78%
IC50 (BACE1): 30.4 nM

Cc1cc(Cl)cnc1C(=O)Nc1ccc(F)c([C@@]2(C)N=C(N)C(C)(C)[S@@]3(=O)=NCC(F)(F)C[C@H]23)n1 [Example 42AA, N-(6-((4aR,5R,9R)-7-amino-3,3-difluoro-5,8,8-trimethyl-9-oxido-2,3,4,4a,5,8-hexahydro-[1,4]thiazino[2,1-f][1,2]thiazin-5-yl)-5-fluoropyridin-2-yl)-5-chloro-3-methylpicolinamide]
response vs control in vivo at 30 mg/kg [1]: 85%
IC50 (BACE1): 19.4 nM

CC1(C)C(N)=N[C@](C)(c2nc(NC(=O)c3ccc(Cl)cn3)ccc2F)[C@H]2CC(F)(F)CN=[S@@]21=O [Example 43AA, N-(6-((4aR,5R,9R)-7-amino-3,3-difluoro-5,8,8-trimethyl-9-oxido-2,3,4,4a,5,8-hexahydro-[1,4]thiazino[2,1-f][1,2]thiazin-5-yl)-5-fluoropyridin-2-yl)-5-chloropicolinamide]
response vs control in vivo at 30 mg/kg [1]: 80%
IC50 (BACE1): 56 nM

CC1(C)C(N)=N[C@](C)(c2nc(NC(=O)c3ncc(OC(F)F)cc3Cl)ccc2F)[C@H]2CC(F)(F)CN=[S@@]21=O [Example 45AA, N-(6-((4aR,5R,9R)-7-amino-3,3-difluoro-5,8,8-trimethyl-9-oxido-2,3,4,4a,5,8-hexahydro-[1,4]thiazino[2,1-f][1,2]thiazin-5-yl)-5-fluoropyridin-2-yl)-3-chloro-5-(difluoromethoxy)-picolinamide]
response vs control in vivo at 30 mg/kg [1]: 85%
IC50 (BACE1): 26.6 nM

Cc1cc(C#N)cnc1C(=O)Nc1ccc(F)c([C@@]2(C)N=C(N)C(C)(C)[S@@]3(=O)=NCC4(CC4)C[C@H]23)n1 [Example 48AA, N-(6-((4aR,5R,9R)-7-amino-5,8,8-trimethyl-9-oxido-4,4a,5,8-tetrahydro-2H-spiro[[1,4]thiazino[2,1-f][1,2]thiazine-3,1′-cyclopropan]-5-yl)-5-fluoropyridin-2-yl)-5-cyano-3-methylpicolinamide]
response vs control in vivo at 30 mg/kg [1]: 61%
IC50 (BACE1): 0.3 nM

CC1(C)C(N)=N[C@](C)(c2nc(NC(=O)c3ncc(C#N)cc3Cl)ccc2F)[C@H]2CC3(CC3)CN=[S@@]21=O [Example 49AA, N-(6-((4aR,5R,9R)-7-amino-5,8,8-trimethyl-9-oxido-4,4a,5,8-tetrahydro-2H-spiro[[1,4]-thiazino[2,1-f][1,2]thiazine-3,1′-cyclopropan]-5-yl)-5-fluoropyridin-2-yl)-3-chloro-5-cyanopicolinamide]
response vs control in vivo at 30 mg/kg [1]: 106%
IC50 (BACE1): 0.1 nM

CC1(C)C(N)=N[C@](C)(c2nc(NC(=O)c3ncc(OC(F)F)cc3Cl)ccc2F)[C@H]2CC3(CC3)CN=[S@@]21=O [Example 50AA, N-(6-((4aR,5R,9R)-7-amino-5,8,8-trimethyl-9-oxido-4,4a,5,8-tetrahydro-2H-spiro[[1,4]thiazino[2,1-f][1,2]thiazine-3,1′-cyclopropan]-5-yl)-5-fluoropyridin-2-yl)-3-chloro-5-(difluoromethoxy)picolinamide]
response vs control in vivo at 30 mg/kg [1]: 117%
IC50 (BACE1): 15.9 nM
